# Reference: patent publication US8344139B2, “Process for preparing crystalline polymorphic forms of (6R)-L-erythro-tetrahydrobiopterin dihydrochloride” (Merck Eprova AG, priority 2003, dated 2013)
# “Also recorded” adds a separate entry of the source.
# What was measured:
# [1] = Hygroscopicity / water adsorption (thermogravimetry, TG-FTIR); format: physicochemical; settings: for hygroscopicity / adsorbed water content: dihydrochloride; for adsorbed water content: water released on heating at 10° C./minute
# Experimental: 1.05 gram of (6R)-L-erythro-tetrahydrobiopterin dihydrochloride are dissolved in 4.0 ml of bi-distilled water at 23±2° C. The solution is filtrated through a 0.22 μm millipore filtration unit and the filtrate is transferred into a 250 ml round flask. The solution in this flask is frozen by placing the flask into a bed with solid carbon dioxide at −78° C. The flask with the frozen content is then connected to a laboratory freeze dryer operating at a starting pressure of about 0.05 mbar. After about 20 hours the freeze drying is complete and the vacuum flask is disconnected from the freeze dryer and about 1.0 g of white, crystalline solid material is obtained. […] The sample begins to decompose above 200° C. TG-FTIR: Thermogravimetric measurements are carried out with a Netzsch Thermo-Micro-balance TG 209 coupled to a Bruker FTIR Spectrometer Vector 22 (sample pans with a pinhole, N2 atmosphere, heating rate 10 K/min).
# [2] = Relative stability of the crystal forms as described; settings: for relative stability of the crystal form: dihydrochloride
# [3] = Phase equilibration / suspension stability tests in solvents, solid form by FT Raman and X-ray diffraction; format: physicochemical; settings: room temperature
# Experimental: 105 mg of polymorph A according to example A1 are suspended in 1.0 ml tertiary butyl methyl ether (TBME). The suspension is stirred under nitrogen atmosphere for about 18 hours at room temperature, filtrated and the white solid residue is then dried under air.
# 90 mg of polymorph A according to example A1 are suspended in 2.0 ml tetrahydrofuran (THF) and the resulting suspension is stirred in air for five days at room temperature, filtrated and the white solid residue is then dried under air.
# The white suspension is stirred for 5 hours at room temperature, filtrated and dried under nitrogen at room temperature.
# The white suspension is stirred over night at room temperature, filtrated and then dried under nitrogen at room temperature.
# The white suspension is stirred over night at room temperature, filtrated and dried under nitrogen room temperature.
# The white suspension is stirred in air over a weekend at room temperature, filtrated and then dried in air at room temperature. […] The white suspension is stirred for about 20 hours at room temperature, filtrated and dried in air at room temperature.
# The suspension is stirred for about 20 hours at room temperature under nitrogen atmosphere, filtrated and then drying under nitrogen.
# The suspension is stirred at room temperature under nitrogen atmosphere for about 23 hours, filtrated and dried in air.
# 105 mg of hydrate form D according to example B3 are suspended in 2.0 ml IPA. The suspension is stirred at room temperature for about 18 hours, filtered and the solid then dried in air at room temperature for about 4 hours.
# Powder X-ray Diffraction (PXRD): PXRD is performed either on a Philips 1710 or on a Philips X'Pert powder X-ray diffractometer using CuKα radiation. D-spacings are calculated from the 2θ using the wavelength of the CuKα1 radiation of 1.54060 A. The X-ray tube was operated at a Voltage of 45 kV (or 40 kV with X'Pert Instrument), and a current of 45 mA (or 40 mA with X'Pert Instrument). A step size of 0.02°, and a counting time of 2.4 s per step is applied. Generally, 2θ values are within an error of ±0.1-0.2°. The experimental error on the d-spacing values is therefore dependent on the peak location.
# Raman spectroscopy: FT-Raman spectra are recorded on a Bruker RFS 100 FT-Raman system with a near infrared Nd:YAG laser operating at 1064 nm and a liquid nitrogen-cooled germanium detector. For each sample, 64 scans with a resolution of 2 cm^−1 are accumulated. Generally; 300 mW laser power is used.
# [4] = Storage of solid forms under defined relative humidity, resulting crystal form; format: physicochemical
# Experimental: Hydrate form C is retained. 71 mg of polymorph form A according to example A1 are stored in air under 52% relative humidity at room temperature for 17 days. […] About 50 mg of polymorph form F according to example A26 are placed on an powder X-ray diffraction sample holder of 0.8 mm thickness (TTK type, obtained form Anton Pear GmbH, Graz, Austria). The prepared sample holder is placed in the closed sample chamber of a Philips X'Pert powder X-ray diffractometer and the sample chamber is purged with nitrogen and partially saturated with water vapour to a resulting relative humidity of about 52%. After an exposure time of about 24 hour a powder X-ray diffraction pattern is recorded.
# [5] = 52% relative humidity, room temperature, 17 days, dihydrochloride
structure (smiles),measurement,setting,value
"C[C@H](O)[C@H](O)[C@H]1CNc2nc(N)[nH]c(=O)c2N1.Cl.Cl [form N, (6R)-L-erythro-tetrahydrobiopterin dihydrochloride]",hygroscopicity,[1],slightly hygroscopic
"C[C@H](O)[C@H](O)[C@H]1CNc2nc(N)[nH]c(=O)c2N1.Cl.Cl [form K, (6R)-L-erythro-tetrahydrobiopterin dihydrochloride]",hygroscopicity,[1]; listed as polymorph K,slightly hygroscopic
same,adsorbed water content,[1]; listed as polymorph K,about 2.0 percent by weight
same,relative stability of the crystal form,[2]; listed as polymorph K,less stable than form B at higher temperatures
"C[C@H](O)[C@H](O)[C@H]1CNc2nc(N)[nH]c(=O)c2N1.Cl.Cl [form I, (6R)-L-erythro-tetrahydrobiopterin dihydrochloride]",hygroscopicity,[1],hygroscopic
"C[C@H](O)[C@H](O)[C@H]1CNc2nc(N)[nH]c(=O)c2N1.Cl.Cl [form B, (6R)-L-erythro-tetrahydrobiopterin dihydrochloride]",crystal form after suspension stirring,"[3]; 2-Propanol, over night, nitrogen",polymorph form B
same,crystal form after suspension stirring,"[3]; EtOH in air, over a weekend","slightly yellow crystalline solid, polymorph form B"
same,crystal form after suspension stirring,"[3]; EtOH, over night, nitrogen",polymorph form B
same,crystal form after suspension stirring,"[3]; THF, about 20 hours, nitrogen (slightly yellow solid from the EtOH/air test)","slightly yellow crystalline solid, polymorph form B"
same,crystal form after suspension stirring,"[3]; acetone, over night, nitrogen",polymorph form B
same,crystal form after suspension stirring,"[3]; acetonitrile containing 2% by weight of water, about 20 hours, nitrogen",polymorph form B
same,crystal form after suspension stirring,"[3]; ethyl acetate containing 2% by weight of water, about 23 hours, nitrogen",polymorph form B
same,crystal form after suspension stirring,"[3]; methanol, 5 hours, nitrogen",polymorph form B
same,hygroscopicity,[1]; listed as Polymorph B,slightly hygroscopic
same,crystal form after storage,"[4]; open container under air, 75% relative humidity, 40° C., 5 days",still polymorph form B
"C[C@H](O)[C@H](O)[C@H]1CNc2nc(N)[nH]c(=O)c2N1.Cl.Cl [form C, (6R)-L-erythro-tetrahydrobiopterin dihydrochloride]",hygroscopicity,[1],slightly hygroscopic
same,crystal form after storage,[4]; [5],retained
same,conversion of the crystal form,[2]; about 40° C. in air and lower relative humidity,easily converted to polymorph form B
"C[C@H](O)[C@H](O)[C@H]1CNc2nc(N)[nH]c(=O)c2N1.Cl.Cl [form E, (6R)-L-erythro-tetrahydrobiopterin dihydrochloride]",hygroscopicity,[1],non-hygroscopic
same,crystal form after storage,[4]; [5],retained
"C[C@H](O)[C@H](O)[C@H]1CNc2nc(N)[nH]c(=O)c2N1.Cl.Cl [form M, (6R)-L-erythro-tetrahydrobiopterin dihydrochloride]",hygroscopicity,[1],slightly hygroscopic
"C[C@H](O)[C@H](O)[C@H]1CNc2nc(N)[nH]c(=O)c2N1.Cl.Cl [form J, (6R)-L-erythro-tetrahydrobiopterin dihydrochloride]",hygroscopicity,[1]; listed as polymorph J,slightly hygroscopic
same,relative humidity at which the form transforms back into form E,[2],above 75 % relative humidity
"C[C@H](O)[C@H](O)[C@H]1CNc2nc(N)[nH]c(=O)c2N1.Cl.Cl [form G, (6R)-L-erythro-tetrahydrobiopterin dihydrochloride]",hygroscopicity,[1],hygroscopic
"C[C@H](O)[C@H](O)[C@H]1CNc2nc(N)[nH]c(=O)c2N1.Cl.Cl [form F, (6R)-L-erythro-tetrahydrobiopterin dihydrochloride]",hygroscopicity,[1]; listed as polymorph F,slightly hygroscopic
same,adsorbed water content,[1]; listed as polymorph F,about 3 percent by weight
same,crystal form after exposure to humidity,"[4]; nitrogen with water vapour, relative humidity about 52%, about 24 hour",crystalline form O
"C[C@H](O)[C@H](O)[C@H]1CNc2nc(N)[nH]c(=O)c2N1.Cl.Cl [form D, (6R)-L-erythro-tetrahydrobiopterin dihydrochloride]",crystal form after suspension stirring,"[3]; IPA, about 18 hours",unchanged hydrate form D
same,hygroscopicity,[1],slightly hygroscopic
same,stability on exposure to air humidity,[2]; ambient temperature,stable
same,relative stability of the crystal form,[2],most stable one under the known hydrates at ambient temperatures and a relative humidity of less than 70%; also recorded: most stable form under the hydrates
same,relative stability of the crystal form,[2]; listed as hydrate D,much higher stability than form C
"C[C@H](O)[C@H](O)[C@H]1CNc2nc(N)[nH]c(=O)c2N1.Cl.Cl [form H, (6R)-L-erythro-tetrahydrobiopterin dihydrochloride]",hygroscopicity,[1],hygroscopic
"C[C@H](O)[C@H](O)[C@H]1CNc2nc(N)[nH]c(=O)c2N1.Cl.Cl [form A, (6R)-L-erythro-tetrahydrobiopterin dihydrochloride]",crystal form after suspension stirring,"[3]; tertiary butyl methyl ether, about 18 hours, nitrogen, dihydrochloride",unchanged polymorph form A
same,crystal form after suspension stirring,"[3]; tertiary butyl methyl ether, about 18 hours, nitrogen, listed as polymorph A, dihydrochloride",essentially still corresponds to form A
same,crystal form after suspension stirring,"[3]; tetrahydrofuran, five days, dihydrochloride",unchanged polymorph form A
same,crystal form after suspension stirring,"[3]; tetrahydrofuran, five days, listed as polymorph A, dihydrochloride",still corresponds to form A
same,hygroscopicity,[1]; listed as polymorph A,slightly hygroscopic
same,temperature above which the sample begins to decompose,"[1]; thermogravimetry, heating rate 10° C./minute",above 200 °C
same,adsorbed water content,[1]; listed as polymorph A,about 3 percent by weight
same,crystal form after storage,[4]; [5],corresponds to hydrate form E
"C[C@H](O)[C@H](O)[C@H]1CNc2nc(N)[nH]c(=O)c2N1.Cl.Cl [form O, (6R)-L-erythro-tetrahydrobiopterin dihydrochloride]",relative stability of the crystal form,[2],more stable than form F under ambient temperature and humidity conditions
